Common to all, as to type: in vivo
The test system of assay [1] is Orchid Thrips (dichromothrips corbetti). As to the kind of experiment: Orchid thrips floral-immersion test. To be noted: dipped orchid flowers, adult thrips, 72 hours after treatment, read-out: mortality in comparison with untreated controls. How it is done:
B.7 Orchid Thrips (dichromothrips corbetti)
Dichromothrips corbetti adults used for bioassay were obtained from a colony maintained continuously under laboratory conditions. For testing purposes, the test compound is diluted in a 1:1 mixture of acetone:water (vol:vol), plus 0.01% vol/vol Alkamuls® EL 620 surfactant.
Thrips potency of each compound was evaluated by using a floral-immersion technique. Plastic petri dishes were used as test arenas. All petals of individual, intact orchid flowers were dipped into treatment solution and allowed to dry. Treated flowers were placed into individual petri dishes along with about 20 adult thrips. The petri dishes were then covered with lids. All test arenas were held under continuous light and a temperature of about 28° C. for duration of the assay. After 3 days, the numbers of live thrips were counted on each flower, and along inner walls of each petri dish. The percentmortality was recorded 72 hours after treatment.

Assay [2] concerns Vetch Aphid (Megoura viciae). As to the kind of experiment: Vetch aphid broad bean leaf disk microtiter test. To be noted: foliar, 120 h, sprayed broad bean leaf disks, 5 days, read-out: mortality in comparison with untreated controls. How it is done:
B.4 Vetch Aphid (Megoura viciae)
For evaluating control of vetch aphid (Megoura viciae) through contact or systemic means the test unit consisted of 24-well-microtiter plates containing broad bean leaf disks.
The compounds were formulated using a solution containing 75% v/v water and 25% v/v DMSO. Different concentrations of formulated compounds were sprayed onto the leaf disks at 2.5 μl, using a custom built micro atomizer, at two replications.
After application, the leaf disks were air-dried and 5-8 adult aphids placed on the leaf disks inside the microtiter plate wells. The aphids were then allowed to suck on the treated leaf disks and incubated at about 23±1° C. and about 50±5% relative humidity for 5 days. Aphid mortality and fecundity was then visually assessed.

Assay [3] concerns Rice Brown Plant Hopper (Nilaparvata lugens). As to the kind of experiment: Rice brown plant hopper spray test on rice seedlings. To be noted: sprayed rice seedlings, adults, after 72 hours, read-out: mortality in comparison with untreated controls. How it is done: B.9 Rice Brown Plant Hopper (Nilaparvata lugens)
Rice seedlings were cleaned and washed 24 hours before spraying. The active compounds were formulated in 50:50 acetone:water (vol:vol) and 0.1% vol/vol surfactant (EL 620) was added. Potted rice seedlings were sprayed with 5 ml test solution, air dried, placed in cages and inoculated with 10 adults. Treated rice plants were kept at about 28-29° C. and relative humidity of about 50-60%. Percent mortality was recorded after 72 hours.

The subject of assay [4] is Cotton Aphid (Aphis gossypii). As to the kind of experiment: Cotton aphid cotyledon dip test. The note with it: 120 h, cotton cotyledons dipped, mortality counts after 5 days, read-out: mortality in comparison with untreated controls. An excerpt: B.2 Cotton Aphid (Aphis gossypii)
The active compounds were formulated in 50:50 (vol:vol) acetone:water and 100 ppm Kinetica™ surfactant.
Cotton plants at the cotyledon stage (one plant per pot) were infested by placing a heavily infested leaf from the main colony on top of each cotyledon. The aphids were allowed to transfer to the host plant overnight, and the leaf used to transfer the aphids was removed. The cotyledons were dipped in the test solution and allowed to dry. After 5 days, mortality counts were made.

Assay [5] concerns Cowpea Aphid (Aphis craccivora). As to the kind of experiment: Cowpea aphid spray test on potted cowpea plants. To be noted: sprayed cowpea plants, population reduction assessed after 24, 72 and 120 hours, read-out: mortality in comparison with untreated controls. The procedure: B.3 Cowpea Aphid (Aphis craccivora)
The active compound is dissolved at the desired concentration in a mixture of 1:1 (vol:vol) distilled water:acetone. The test solution is prepared at the day of use.
Potted cowpea plants colonized with approximately 100-150 aphids of various stages were sprayed after the pest population has been recorded. Population reduction was assessed after 24, 72, and 120 hours.

For assay [6], the system named is Rice Green Leafhopper (Nephotettix virescens). As to the kind of experiment: Rice green leafhopper spray test on rice seedlings. The note with it: sprayed rice seedlings, adults, after 72 hours, read-out: mortality in comparison with untreated controls. How it is done: B.8 Rice Green Leafhopper (Nephotettix virescens)
Rice seedlings were cleaned and washed 24 hours before spraying. The active compounds were formulated in 50:50 acetone:water (vol:vol), and 0.1% vol/vol surfactant (EL 620) was added. Potted rice seedlings were sprayed with 5 ml test solution, air dried, placed in cages and inoculated with 10 adults. Treated rice plants were kept at about 28-29° C. and relative humidity of about 50-60%. Percent mortality was recorded after 72 hours.

Assay [7] relates to Silverleaf Whitefly (bemisia argentifolii). As to the kind of experiment: Silverleaf whitefly spray test on cotton plants. The note with it: 72 h, sprayed cotton plants, whitefly adults, 3 days after treatment, read-out: mortality in comparison with untreated controls. An excerpt:
B.5 Silverleaf Whitefly (bemisia argentifolii)
(§1) The active compounds were formulated in cyclohexanone as a 10,000 ppm solution supplied in tubes. The tubes were inserted into an automated electrostatic sprayer equipped with an atomizing nozzle and they served as stock solutions for which lower dilutions were made in 50% acetone:50% water (v/v). A nonionic surfactant (Kinetic®) was included in the solution at a volume of 0.01% (v/v).
Cotton plants at the cotyledon stage (one plant per pot) were sprayed by an automated electrostatic plant sprayer equipped with an atomizing spray nozzle. The plants were dried in the sprayer fume hood and then removed from the sprayer. Each pot was placed into a plastic cup and about 10 to 12 whitefly adults (approximately 3-5 days old) were introduced. The insects were collected using an aspirator and a nontoxic Tygon® tubing connected to a barrier pipette tip. The tip, containing the collected insects, was then gently inserted into the soil containing the treated plant, allowing insects to crawl out of the tip to reach the foliage for feeding. Cups were covered with a reusable screened lid. […] Mortality was assessed 3 days after treatment, compared to untreated control plants.

For assay [8], the system named is Boll Weevil (Anthonomus grandis). As to the kind of experiment: Boll weevil insect diet microtiter test. The note with it: 120 h, sprayed onto insect diet with eggs, egg and larval mortality after 5 days, read-out: mortality in comparison with untreated controls. The procedure:
B.6 Boll Weevil (Anthonomus grandis)
For evaluating control of boll weevil (Anthonomus grandis) the test unit consisted of 24-well-microtiter plates containing an insect diet and 20-30 A. grandis eggs.
The compounds were formulated using a solution containing 75% v/v water and 25% v/v DMSO. Different concentrations of formulated compounds were sprayed onto the insect diet at 20 μl, using a custom built micro atomizer, at two replications.
After application, microtiter plates were incubated at about 23±1° C. and about 50±5% relative humidity for 5 days. Egg and larval mortality was then visually assessed.

Assay [9] concerns Green Peach Aphid (Myzus persicae). As to the kind of experiment: Green peach aphid foliar spray test on bell pepper. To be noted: 120 h, sprayed bell pepper plants, aphid mortality after 5 days, read-out: mortality in comparison with untreated controls.
Text: B.1 Green Peach Aphid (Myzus persicae)
as §1
Bell pepper plants at the first true-leaf stage were infested prior to treatment by placing heavily infested leaves from the main colony on top of the treatment plants. Aphids were allowed to transfer overnight to accomplish an infestation of 30-50 aphids per plant and the host leaves were removed. The infested plants were then sprayed by an automated electrostatic plant sprayer equipped with an atomizing spray nozzle. The plants were dried in the sprayer fume hood, removed, and then maintained in a growth room under fluorescent lighting in a 24-hr photoperiod at about 25° C. and about 20-40% relative humidity. Aphid mortality on the treated plants, relative to mortality on untreated control plants, was determined after 5 days.

Turning to `FC(F)(F)c1nc2cccn(Cc3ccc(Cl)nc3)c-2n1` [E1.15, 4-[(6-chloro-3-pyridyl)methyl]-2-(trifluoromethyl)imidazo[4,5-b]pyridine], the mortality at 500 ppm in assay [1], in [3], in assay [5], in [6] and in [7] was not below 75% throughout. For the same molecule, in assay [2], the mortality at 800 ppm is not below 75%. For the same molecule, the mortality at 300 ppm in assay [4] was not below 75%.
Take `Clc1ccc(Cn2cccc3nc(Cl)nc2-3)cn1` [E1.8, 2-chloro-4-[(6-chloro-3-pyridyl)methyl]imidazo[4,5-b]pyridine]: in assay [8], the mortality at 2500 ppm is more than 75%. Moreover, the mortality at 500 ppm in assay [1], in [3], in assay [5], in assay [6] and in assay [7] was not below 75% each time. The mortality at 800 ppm in [2] was not below 75%. In addition, the mortality at 300 ppm in assay [4] and in assay [9] was not below 75% in each case.
Regarding `CSc1nc2cccn(Cc3ccc(Cl)nc3)c-2n1` [E1.4, 4-[(6-chloro-3-pyridyl)methyl]-2-methylsulfanyl-imidazo[4,5-b]pyridine], the mortality at 800 ppm in assay [2] was not below 75%. Also, the mortality at 500 ppm in assay [5] was not below 75%.

The values are drawn from US9422280B2, “N-substituted hetero-bicyclic compounds and derivatives for combating animal pests II” (BASF SE, priority 2012, dated 2016).
